Here are results for 29 molecules from patent publication US8933221B2, “Hexahydropyrano[3,4-d][1,3]thiazin-2-amine compounds” (Pfizer Inc., priority 2011, dated 2015).

Broadly, the IC50 is the midpoint of a concentration-inhibition curve. Higher therefore signals lower potency.

In one assay the target is BACE1 enzyme (Homo sapiens, UniProt P56817). Briefly: BACE1 cell-free assay (fluorescence polarization, synthetic APP substrate).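 For all read-outs here: soluble His-tagged BACE1 purified from transfected CHO-K1 cell media, biotinylated Oregon Green-labelled peptide substrate, 3 h at 37 °C, cleavage followed as change in fluorescence polarization.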 Conditions: for IC50: values marked b from a single determination; for activity against the BACE1 enzyme: statement in words, used to assign stereochemistry. The format is biochemical. (In general: In fluorescence polarisation assays a small probe gives low polarisation when free and higher when bound to something large.)

For assay [1], the system named is sAPPβ levels in H4 human neuroglioma cells over-expressing wild-type human APP695. In words: sAPPβ whole cell assay (in vitro sAPPb assay, TMB-ELISA). The format is cell-based. (An ELISA detects its analyte on a solid surface through an enzyme-linked reagent.)
The mark [2] stands for this setting: geometric mean of 2-6 determinations.
Setting [3] is: Homo sapiens, 18 hours, geometric mean of 2-6 determinations.
Setting [4] is: geometric mean of 2-4 determinations.
The mark [5] stands for this setting: Homo sapiens, 18 hours, geometric mean of 2-4 determinations, values marked b from a single determination.
Where [6] appears, read: Homo sapiens, 18 h, geometric mean of 2-4 determinations, values marked b from a single determination.

The structures appear in SMILES notation. Where a name gives a salt, the structure may show the parent alone. A value given as a limit tells only on which side of the number the result lay.

Sequence of BACE1 enzyme (P56817 46-501 limits assumed): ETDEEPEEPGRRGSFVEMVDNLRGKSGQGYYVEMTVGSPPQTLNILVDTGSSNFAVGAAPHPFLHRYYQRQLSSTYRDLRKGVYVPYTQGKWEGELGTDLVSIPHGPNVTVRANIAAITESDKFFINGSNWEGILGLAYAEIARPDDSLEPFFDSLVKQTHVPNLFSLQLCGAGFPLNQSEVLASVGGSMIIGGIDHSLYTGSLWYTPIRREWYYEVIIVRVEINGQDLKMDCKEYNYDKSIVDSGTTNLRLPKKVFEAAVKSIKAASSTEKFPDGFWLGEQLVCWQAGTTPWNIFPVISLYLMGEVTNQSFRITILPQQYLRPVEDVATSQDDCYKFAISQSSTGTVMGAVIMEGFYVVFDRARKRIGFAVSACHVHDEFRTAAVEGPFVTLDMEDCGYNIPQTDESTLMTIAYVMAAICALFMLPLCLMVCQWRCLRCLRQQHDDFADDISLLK

For the molecule `C[C@H]1SC(N)=N[C@@]2(c3ccccc3F)COCC[C@@H]12` (racemic) [Example 27], the concentration for half-maximal inhibition (IC50) came to 6720 nM against BACE1 enzyme (setting [2]) and 434 nM in assay [1] (setting [3]).

For `C[C@H]1SC(N)=N[C@@]2(c3cc(Br)ccc3F)COCC[C@@H]12` (racemic) [Example 30], the results for the IC50 (against BACE1 enzyme (setting [2]); in assay [1] (setting [3])) were 27800 nM and 1650 nM, respectively.

With `NC1=N[C@@]2(c3ccccc3F)CO[C@@H](COc3ncccn3)C[C@H]2CS1` [Example 22, (4aR,6R,8aS)-8a-(2-Fluorophenyl)-6-[(pyrimidin-2-yloxy)methyl]-4,4a,5,6,8,8a-hexahydropyrano[3,4-d][1,3]thiazin-2-amine, trifluoroacetic acid salt], the values for the IC50 (at BACE1 enzyme (setting [4]); in assay [1] (setting [5])) were 8030 nM and 71.1 nM, respectively.

Take `NC1=N[C@@]2(c3ccc(F)cc3F)CO[C@@H](COCc3ccccc3)C[C@H]2CS1` [Example 6, (4aR,6R,8aS)-6-[(Benzyloxy)methyl]-8a-(2,4-difluorophenyl)-4,4a,5,6,8,8a-hexahydropyrano[3,4-d][1,3]thiazin-2-amine, trifluoroacetic acid salt]: the half-maximal inhibitory concentration (IC50) against BACE1 enzyme (setting [4]) came to 32.3 nM; in assay [1] (setting [5]), 64.6 nM.

Turning to `NC1=N[C@]2(c3ccc(F)cc3F)COCC[C@@H]2CS1` [Example 20, (4aS,8aR)-8a-(2,4-Difluorophenyl)-4,4a,5,6,8,8a-hexahydropyrano[3,4-d][1,3]thiazin-2-amine], on BACE1 enzyme, the “activity against the BACE1 enzyme” value was “does not”. Further, the IC50 in assay [1] (setting [5]) is > 27100 nM.

Take `NC1=N[C@@]2(c3ccccc3F)CO[C@@H](COc3ccccc3)C[C@H]2CS1` [Example 7, (4aR,6R,8aS)-8a-(2-Fluorophenyl)-6-(phenoxymethyl)-4,4a,5,6,8,8a-hexahydropyrano[3,4-d][1,3]thiazin-2-amine]: the IC50 at BACE1 enzyme (setting [4]) was found to be 826 nM; in assay [1] (setting [5]), 108 nM.

Consider `NC1=N[C@@]2(c3ccccc3F)CO[C@@H](CO)C[C@H]2CS1` [Example 29], for which the IC50 against BACE1 enzyme (setting [2]) was 8410 nM; in assay [1] (setting [3]), 493 nM.

In the case of `C[C@@H]1SC(N)=N[C@@]2(c3ccccc3F)COCC[C@@H]12` (racemic) [Example 28], the IC50 was 11200 nM against BACE1 enzyme (setting [2]) and 445 nM in assay [1] (setting [3]).

With `CC(C)OC[C@H]1C[C@H]2CSC(N)=N[C@@]2(c2ccccc2F)CO1` [Example 2, (4aR,6R,8aS)-8a-(2-Fluorophenyl)-6-[(propan-2-yloxy)methyl]-4,4a,5,6,8,8a-hexahydropyrano[3,4-d][1,3]thiazin-2-amine, trifluoroacetate salt], the values for the IC50 (against BACE1 enzyme (setting [4]); in assay [1] (setting [5])) were 396 nM and 72.9 nM, respectively.

Turning to `NC1=N[C@@]2(c3ccccc3F)CO[C@@H](COc3cnccn3)C[C@H]2CS1` [Example 21, (4aR,6R,8aS)-8a-(2-Fluorophenyl)-6-[(pyrazin-2-yloxy)methyl]-4,4a,5,6,8,8a-hexahydropyrano[3,4-d][1,3]thiazin-2-amine, trifluoroacetic acid salt], the concentration for half-maximal inhibition (IC50) was found to be 2030 nM on BACE1 enzyme (setting [4]) and 23.1 nM in assay [1] (setting [5]).

As to `Cc1ccc([C@]23COCC[C@H]2CSC(N)=N3)c(F)c1` (relative stereo) [Example 13, rel-(4aR,8aS)-8a-(2-Fluoro-4-methylphenyl)-4,4a,5,6,8,8a-hexahydropyrano[3,4-d][1,3]thiazin-2-amine, hydrochloride salt], the IC50 against BACE1 enzyme (setting [4]) was 3730 nM; in assay [1] (setting [5]) it was 438 nM.

In assay [1] (setting [6]), `NC1=N[C@@]2(c3c(F)cccc3F)COCC[C@H]2CS1` (relative stereo) [Example 16, rel-(4aR,8aS)-8a-(2,6-Difluorophenyl)-4,4a,5,6,8,8a-hexahydropyrano[3,4-d][1,3]thiazin-2-amine] came in with a half-maximal inhibitory concentration (IC50) of 506 nM.

In the case of `NC1=N[C@@]2(c3ccc(F)cc3F)COCC[C@H]2CS1` [Example 1, (4aR,8aS)-8a-(2,4-Difluorophenyl)-4,4a,5,6,8,8a-hexahydropyrano[3,4-d][1,3]thiazin-2-amine], the “activity against the BACE1 enzyme” value at BACE1 enzyme is on record as “displays activity against the BACE1 enzyme”. The midpoint of inhibition in assay [1] (setting [5]), the IC50, lay at 211 nM.

On to `COc1ccccc1[C@]12COCC[C@H]1CSC(N)=N2` (relative stereo) [Example 19, rel-(4aR,8aS)-8a-(2-Methoxyphenyl)-4,4a,5,6,8,8a-hexahydropyrano[3,4-d][1,3]thiazin-2-amine], for which the IC50 at BACE1 enzyme (setting [4]) is > 100000 nM; in assay [1] (setting [5]), 4030 nM.

Turning to `NC1=N[C@@]2(c3ccccc3F)CO[C@@H](COc3ccccn3)C[C@H]2CS1` [Example 8, (4aR,6R,8aS)-8a-(2-Fluorophenyl)-6-[(pyridin-2-yloxy)methyl]-4,4a,5,6,8,8a-hexahydropyrano[3,4-d][1,3]thiazin-2-amine], the IC50 at BACE1 enzyme (setting [4]) was 2380 nM; in assay [1] (setting [5]), 239 nM.

With `NC1=N[C@@]2(c3ccc(O)cc3F)COCC[C@H]2CS1` (relative stereo) [Example 18, rel-4-[(4aR,8aS)-2-Amino-4,4a,5,6-tetrahydropyrano[3,4-d][1,3]thiazin-8a(8H)-yl]-3-fluorophenol, ammonium salt], the IC50 on BACE1 enzyme (setting [4]) came out at 5350 nM; in assay [1] (setting [5]), 1000 nM.

Turning to `NC1=N[C@@]2(c3ccccc3F)COCC[C@H]2CS1` (relative stereo) [Example 12, rel-(4aR,8aS)-8a-(2-Fluorophenyl)-4,4a,5,6,8,8a-hexahydropyrano[3,4-d][1,3]thiazin-2-amine], the results for the IC50 (at BACE1 enzyme (setting [4]); in assay [1] (setting [6])) were 7950 nM and 436 nM, respectively.

Regarding `C[C@H]1SC(N)=N[C@@]2(c3cc(-c4cncnc4)ccc3F)COCC[C@@H]12` (racemic) [Example 31], the IC50 stood at 3000 nM against BACE1 enzyme (setting [2]) and 112 nM in assay [1] (setting [3]).

With `NC1=N[C@@]2(c3ccccc3F)CO[C@@H](CF)C[C@H]2CS1` [Example 5, (4aR,6R,8aS)-6-(Fluoromethyl)-8a-(2-fluorophenyl)-4,4a,5,6,8,8a-hexahydropyrano[3,4-d][1,3]thiazin-2-amine], the half-maximal inhibitory concentration (IC50) on BACE1 enzyme (setting [4]) was determined as 838 nM; in assay [1] (setting [5]) it was 83.4 nM.

`NC1=N[C@@]2(c3ccccc3F)COCC[C@H]2CS1` [Example 24]: the IC50 came to 4540 nM against BACE1 enzyme (setting [2]) and 452 nM in assay [1] (Homo sapiens, 18 h, geometric mean of 2-6 determinations).

For `NC1=N[C@@]2(c3ccc(Cl)cc3F)COCC[C@H]2CS1` (relative stereo) [Example 17, rel-(4aR,8aS)-8a-(4-chloro-2-Fluorophenyl)-4,4a,5,6,8,8a-hexahydropyrano[3,4-d][1,3]thiazin-2-amine, hydrochloride salt], the IC50 at BACE1 enzyme (setting [4]) came to 10200 nM; in assay [1] (setting [5]) it was 775 nM.

Regarding `NC1=N[C@@]2(c3ccc(F)cc3)COCC[C@H]2CS1` (relative stereo) [Example 11, rel-(4aR,8aS)-8a-(4-Fluorophenyl)-4,4a,5,6,8,8a-hexahydropyrano[3,4-d][1,3]thiazin-2-amine], the values for the IC50 (on BACE1 enzyme (setting [4]); in assay [1] (setting [5])) were 7520 nM and 380 nM, respectively.

Turning to `NC1=N[C@@]2(c3ccccc3F)CO[C@@H](COC(=O)c3ccccc3)C[C@H]2CS1` [Example 15, [(4aR,6R,8aS)-2-Amino-8a-(2-fluorophenyl)-4,4a,5,6,8,8a-hexahydropyrano[3,4-d][1,3]thiazin-6-yl]methyl benzoate], the IC50 against BACE1 enzyme (setting [4]) worked out at 13000 nM; in assay [1] (setting [5]), 492 nM.

For `CCOC[C@H]1C[C@H]2CSC(N)=N[C@@]2(c2ccccc2F)CO1` [Example 9, (4aR,6R,8aS)-6-(Ethoxymethyl)-8a-(2-fluorophenyl)-4,4a,5,6,8,8a-hexahydropyrano[3,4-d][1,3]thiazin-2-amine, trifluoroacetic acid salt], the 50% inhibitory concentration (IC50) at BACE1 enzyme (setting [4]) worked out at 914 nM; in assay [1] (setting [5]), 80 nM.

Take `NC1=N[C@@]2(c3ccc(F)cc3F)CO[C@@H](CO)C[C@H]2CS1` [Example 3, [(4aR,6R,8aS)-2-Amino-8a-(2,4-difluorophenyl)-4,4a,5,6,8,8a-hexahydropyrano[3,4-d][1,3]thiazin-6-yl]methanol]: the half-maximal inhibitory concentration (IC50) at BACE1 enzyme (setting [4]) amounted to 2270 nM; in assay [1] (setting [5]), 436 nM.

Consider `NC1=N[C@@]2(c3ccccc3OC(F)(F)F)COCC[C@H]2CS1` [Example 25], for which the concentration for half-maximal inhibition (IC50) at BACE1 enzyme (setting [2]) came out at 87900 nM.

On to `NC1=N[C@@]2(c3ccccc3)COCC[C@H]2CS1` (relative stereo) [Example 14, rel-(4aR,8aS)-8a-Phenyl-4,4a,5,6,8,8a-hexahydropyrano[3,4-d][1,3]thiazin-2-amine], for which the IC50 against BACE1 enzyme (setting [4]) amounted to 10400 nM; in assay [1] (setting [5]), 477 nM.

Consider `NC1=N[C@@]2(c3ccccc3F)COCC[C@H]2CS1` (racemic) [Example 23], for which the IC50 at BACE1 enzyme (setting [2]) was 7950 nM; in assay [1] (18 hours, geometric mean of 2-6 determinations) it was 436 nM.

Regarding `COC[C@H]1C[C@H]2CSC(N)=N[C@@]2(c2ccccc2F)CO1` [Example 26], the concentration for half-maximal inhibition (IC50) came out at 1240 nM at BACE1 enzyme (setting [2]) and 148 nM in assay [1] (setting [3]).
